Source: patent publication US20060154993A1, “Method for treating and preventing male infertility” (priority 2004, published 2006)
“And” between values parts separate entries of the source, which are not always exact repeats. Equal entries are not always repeated. Marks after values point to notes of the source that are not given here.

Columns and labels:
sperm cells [1] = assay: Computer-assisted sperm analysis (CASA) of sperm cell motility; assay type: in vivo, human; settings: after 6 months treatment, P<0.05; for Straight progressive velocity (VSL): baseline 15.20 ± 1.30; for Curvilinear velocity (VCL): baseline 26.31 ± 1.50
Protocol: (§1) The enrolled patients underwent dietary implementation of CoQ10 (PharmaNord, Veyle, Denmark), 200 mg/day twice daily orally for 6 months. Clinical examination, semen analysis including computer-assisted sperm analysis (CASA), and CoQ10 and PC assays were performed at baseline and after 6 months of therapy. An additional semen analysis was performed 6 months after the termination of therapy (wash-out). This study was approved by the Institutional Review Board of the University of Ancona-Umberto I Hospital. All patients provided their written informed consent and completed the entire trial.
In addition, CASA for sperm cell motility was performed, as reported elsewhere. One semen aliquot (3 μL) was placed in a 20-μm depth chamber. Two 20-μm depth cell-VU chambers (Conception Technologies, La Jolla, Calif.) were loaded, and six different fields per chamber were randomly examined and at least 200 sperm for each field of the chamber were scored. Percentages of motile sperm and movement characteristics were analyzed using an automated analyzer at 37° C. (CellTrack VP 110, Motion Analysis Corporation, Palo Alto, Calif.). Sperm velocity and kinetic characteristics were evaluated only for motile sperm and expressed as mean values considering curvilinear velocity (VCL) and straight progressive velocity (VSL).

[2] = after chronic administration of the quinone; commonly found; cited from earlier work
[3] = Phosphatidylcholine (PC) levels in seminal plasma and sperm cells by HPLC-UV after CoQ10 treatment; assay type: in vivo, human; settings: after 6 months CoQ10 orally, mean ± SD, P<0.05
Protocol: as §1
Analysis of PC was performed according to Frei et al. with the modification described by Yamamoto et al. After adding 1 mL of methanol to a cellular suspension containing about 10^6 sperm cells or to 50 μL of seminal plasma, samples were mixed for 1 minute; then 6 mL of hexane were added and samples were mixed again before centrifugation (10 minutes at 500 g). Supernatant was collected and dried with a nitrogen stream. Dried sample residues were dissolved in 300 μL of ethanol.
Phosphatidylcholine was essentially determined according to Frei et al. An analytical column was a Supelcosil LCSi, 25 cm×0.46 cm ID, 5 μm (Supelco). A Jasco HPLC System (Jasco Corporation, Tokyo, Japan) provided with two PU-980 pumps, and a UV detector set at 205 nm wavelength was used for detention of total PC.

[4] = test system: idiopathic asthenospermia; assay: Spontaneous pregnancy after CoQ10 therapy; assay type: in vivo, human; settings: within 3 months of the discontinuation of therapy
Protocol: (§2) Twenty-two patients (mean age, 31 years; range, 25-39 years) with idiopathic asthenospermia were enrolled in the study. The patients were selected at the Andrology Unit of the Division of Endocrinology, Umberto I Hospital, University of Ancona, Ancona, Italy. All subjects underwent medical screening, including history and clinical examination, and presented with a clinical history of primary infertility of at least 3 years. Testicular volume was evaluated in each patient using Prader's orchidometer. To accomplish a complete diagnosis, the following investigations were also performed: semen analysis; Mar-test (SperMar test, Diasint, Florence, Italy) for anti-spermatozoa antibodies (Ab); sperm culture and urethral specimens collection for Chlamydia and Mycoplasma ureoliticum detection; FSH, LH, T, E2, and PRL assays, using commercial RIA kits; and testicular, prostatic, and seminal vesicle ultrasound and echo-color Doppler of venous spermatic plexus for anatomical abnormalities and varicocele detection.
There was no apparent female factor, since all partners (mean age, 28 years; range, 23-35 years) were ovulating regularly as formally proven by luteal phase progesterone (P) levels and no abnormal fallopian tube anatomy was detected after hysterosalpingography. […]

sperm cells [5] = assay: Seminal fluid analysis (WHO criteria): sperm concentration, motility, morphology; assay type: in vivo, human; settings: for Sperm concentration / Teratozoospermia: NS
Protocol: as §1
Semen quality was assessed by the same biologist in terms of sperm concentration, motility, and morphology in accordance with WHO criteria. Briefly, seminal fluid was obtained by masturbation after 3-5 days of sexual abstinence. The samples were kept in the andrology lab at room temperature and processed within 1 hour from ejaculation. Sperm count was determined with the Makler chamber. Motile spermatozoa were assessed by phase contrast microscopy (10 μL of semen was delivered onto a glass slide and covered with a 22 mm×22 mm coverslip) and graded as follows: class a and b, fast and weak forward motility; class c, nonprogressive motility; class d, immobile spermatozoa. Sperm morphology was evaluated on smears of seminal fluid, stained with the Giemsa method, and observed by oil immersion light microscopy. Conventional immunocytochemistry was used to assess WBC.

Safety assessment = assay type: in vivo, human; settings: oral administration, 6 months
From the text: Safety assessment included medical history, physical examination, hematological screening, and serum chemistry at all visits and the monitoring of drug-related adverse events by recordation in patient diaries.

[6] = CoQ10 levels in seminal plasma and sperm cells by HPLC-EC, idiopathic asthenospermia patients on CoQ10; assay type: in vivo, human
Protocol: as §2, §1
The liquefied semen samples were centrifuged at room temperature at 500×g for 18 minutes. The sperm cell pellet was washed with 0.15 M NaCl. Two hundred fifty microliters of 1-propanol were added to 50 μL of a cellular suspension containing 10^6 sperm cells or to 50 μL of seminal plasma. After mixing for 1 minute, the samples were centrifuged for 5 minutes at 2,000×g and the obtained supernatants were injected into the high pressure liquid chromatography (HPLC) apparatus. […]
CoQ10 levels were assayed in sperm cells and seminal plasma using a Beckman Gold HPLC System (Beckman Instruments, San Ramon, Calif.) equipped with an electrochemical detector (EC, ESA 5100, Bedford, Mass.) as described elsewhere. The detector was supplied with a guard cell and an analytical cell with two electrodes in series; the potentials applied to the electrodes were, respectively, +0.6V, −0.45V, and +0.6V; chromatograms were recorded from the second analytical cell signal. One hundred microliters of samples were directly injected into the analytical column and analyzed; an analytical column was a Supelcosil reverse-phase C18, 15 cm×0.46 cm ID, 3 μm (Supelco, Inc., Bellefonte, Pa.). […]

[7] = after 6 months wash-out, listed as coenzyme Q10

In the case of `COC1=C(OC)C(=O)C(C/C=C(\C)CC/C=C(\C)CC/C=C(\C)CC/C=C(\C)CC/C=C(\C)CC/C=C(\C)CC/C=C(\C)CC/C=C(\C)CC/C=C(\C)CCC=C(C)C)=C(C)C1=O` [CoQ10, ubiquinone], the “Straight progressive velocity (VSL)” value (sperm cells [1]) is reported as 20.40±2.17 um/second, the “Straight progressive velocity (VSL)” value (sperm cells [1]; listed as coenzyme Q10) is reported as 20.40 ± 2.17^a um/second and the “Curvilinear velocity (VCL)” value (sperm cells [1]) is reported as 46.43±2.28 um/second. The “Curvilinear velocity (VCL)” value (sperm cells [1]; listed as coenzyme Q10) was 46.43 ± 2.28^a um/second, the “increase of CoQ10 concentration in blood plasma compared with baseline value” [2] was 2-3 times and the “PC, seminal plasma” value ([3]; baseline 1.49 ± 0.50) was 5.84±1.15 μM and 5.84 ± 1.15^b μM. For the same compound, the “PC, sperm cells” value ([3]; baseline 6.83 ± 0.98) was 9.67±1.23 nmol/10^6 cells and 9.67 ± 1.23^b nmol/10^6 cells, the “patients who achieved spontaneous pregnancy” value ([4]; three out of 22 patients) was 13.6% and the “pregnancy rate per cycle” value [4] was 2.4%. The “Forward Motility (class a+b)” value (sperm cells [5]; after 6 months treatment, baseline 9.13 ± 2.50, P<0.05) was 16.34%±3.43, the “Forward Motility (class a+b)” value (sperm cells [5]; after 6 months treatment, baseline 9.13 ± 2.50, P<0.05, listed as coenzyme Q10) was 16.34 ± 3.43^a % and the Sperm concentration (sperm cells [5]; after 6 months treatment, baseline 27.60 ± 7.41) was “No significant differences”. For the same compound, the Sperm concentration (sperm cells [5]; after 6 months treatment, baseline 27.60 ± 7.41, listed as coenzyme Q10) was 25.92 ± 5.63, NS 106/mL, the Teratozoospermia (sperm cells [5]; after 6 months treatment, baseline 69.76 ± 4.63) was “No significant differences” and the Teratozoospermia (sperm cells [5]; after 6 months treatment, baseline 69.76 ± 4.63, listed as coenzyme Q10) was 67.82 ± 7.44, NS %. The “Forward Motility (class a+b)” value (sperm cells [5]; after 6 months wash-out) was 9.50% ±2.28, the Sperm concentration (sperm cells [5]; after 6 months wash-out) was “no significant differences” and the Teratozoospermia (sperm cells [5]; after 6 months wash-out) was “no significant differences”. The Sperm concentration (sperm cells [5]; [7]) was 26.18 ± 4.04, NS 106/mL, the Teratozoospermia (sperm cells [5]; [7]) was 66.23 ± 5.34, NS % and the “Forward Motility (class a+b)” value (sperm cells [5]; [7]) was 9.50 ± 2.28^b %. For the same compound, the laboratory abnormalities (Safety assessment) was “no laboratory abnormalities were observed”, the tolerability (Safety assessment) was “generally well tolerated” and the “CoQ10, seminal plasma” value ([6]; after 6 months CoQ10 200 mg/day twice daily orally, baseline 42.0 ± 5.1, mean ± SD, P<0.005) was 127.1 ± 1.9^a ng/mL. The “CoQ10, sperm cells” value ([6]; after 6 months CoQ10 orally, baseline 3.1 ± 0.4, mean ± SD, P<0.05) was 6.5±0.3 ng/10^6 cells and 6.5 ± 0.3^b ng/10^6 cells, the “seminal plasma CoQ10 post-treatment level relative to basal” value ([6]; after 6 months treatment) was 3 times and the concentration at 6 months ([6]; male, human, seminal plasma, po, after 6 months CoQ10 200 mg/day twice daily orally, baseline 42.0 ± 5.1, mean ± SD, P<0.005) was 127 ± 1.9 ng/mL.
